Results on 23 substances are retold here after patent US20250051391A1, “PEPTIDE INHIBITORS AND METHODS FOR INHIBITING PROTEIN AGGREGATION IN NEURONS AND NEURODEGENERATIVE DISEASES” (THE GOVERNING COUNCIL OF THE UNIVERSITY OF TORONTO, priority 2021, published 2025).

Test [1] has as its system HEK293 cells overexpressing human a-syn (WT). The experiment in a line: Cytotoxicity screen of lentiviral 7-mer peptide library, Alpha Syn (WT) cells under MG132. It is filed as cell-based. The conditions noted are these: for Reads 0 uM MG132 / Reads 10 UM MG132 / Reads 25 UM MG132: normalized Illumina peptide counts. An excerpt:
(§1) A screening system to discover candidate peptides to perturb endogenous PPIs based on libraries of short linear interaction motifs that mediate a large fraction (˜30%) of human PPIs (10-12) was recently developed. Here, a lentiviral library of 50,549 7-mer peptide motifs (13) on a green fluorescent protein (GFP) scaffold (FIG. 1A) was used. Cells in a pooled format were infected and the amino acid sequence of each peptide served as its own barcode. By using a low multiplicity of infection followed by puromycin selection, each infected cell expressed one unique GFP-peptide. Peptides that reduced a-syn-mediated cytotoxicity or a-syn oligomers in parallel (FIG. 1A), were screened for.
(§2) To cause cytotoxicity relevant to PD, proteostatic stress in HEK293 cells was induced by inhibiting the proteasome with MG132 and inducing the overexpression of human a-syn (WT) from idiopathic PD in one screen and the more toxic A53T mutant from familial PD in a second screen. The combination of a-syn overexpression and pharmacological proteasome inhibition led to death of most cells, with only those that expressed a protective peptide surviving. By extracting genomic DNA from the surviving cells and amplifying the peptide coding sequences, the protective peptides (FIG. 1A) were identified.
(§3) PCR primers that included the Illumina adaptor sequences were used to amplify peptide coding sequences recovered from selection and cell sorting. Results were demultiplexed, and peptide counts were tallied. After demultiplexing, only reads with an average quality Phred score of >30 were selected, and frequencies were calculated. Finally, the reads were then normalized to the total number of peptides read for that sample population, and a scalar factor was applied. In parallel, ˜25 individual colonies were Sanger sequenced to compare to the NGS data.
(§4) Lentiviruses were made in a 15 cm dish format by transfecting packaging cells (293T) with a three-plasmid system as previously described. Viral transduction of HEK293T cells, tet-off split luciferase a-syn cells, tet-off parent cells, and SH-SY5Y cells were performed with a multiplicity of infection of 0.3 (MOI=0.3). Infected cells were selected in puromycin-containing medium to eliminate uninfected cells and three aliquots of cells were collected for sampling of the initial (TO) cell population. Cells were treated with MG132 at concentrations of 0 μM, 10 μM, 25 μM or 50 μM. For the cell viability screen, surviving cells were collected and gDNA was extracted for identification of peptide inhibitors of cell toxicity. For the inhibition of a-syn aggregation screen, split YFP-a-syn constructs were transfected following stable expression of the peptides. Cells were sorted based on their GFP fluorescence intensities with a FACSVantage SE cell sorter (BD Bioscience).
(§5) Genomic DNA (gDNA) from peptide expressing cells at different time-points was extracted using QIAamp DNA Blood Mini Kit. PCR amplifications of peptides from gDNA in parallel with the lentiviral plasmid library (naïve library) were performed using indexed Illumina PCR primers to incorporate both the Illumina adapter sequences and indexing sequences. Each 50 μl reaction contained 3.2 μg of template, 2×PCR buffer, 2× enhancer solution, 300 μM each dNTP, 900 nM each of Adapter A (5′-[…]-[…]-3′) (SEQ ID NO: 42) and Adapter B (5′-[…]-[…]-3′) (SEQ ID NO: 43), 1 mM MgSO4, 3.75 units of Platinum Pfx polymerase, and water to 50 μl. The PCR reaction was performed by denaturing at 94° C. for 5 minutes, followed by cycling (94° C. for 30 seconds, 65° C. for 30 seconds, 68° C. for 30 seconds)×28 cycles, 68° C. for 5 minutes, then cooling to 4° C. The resulting 244 bp product was purified by electrophoresis in 2% agarose followed by gel extraction. Peptide libraries were quantified using Quant-It assay (Invitrogen) and pooled. […]

The test system of test [2] is a-syn oligomers in HEK293 cells. The experiment in a line: Oligomers screen (split YFP-a-syn protein fragment complementation, FACS). In kind it is cell-based, human. The conditions noted are these: for Reads GFP High: FACS fraction GFP High; for Reads GFP Inter: FACS fraction GFP Inter; for Reads GFP Neg: FACS fraction GFP Neg.
From the text: To detect a-syn oligomers, a protein fragment complementation assay (PCA) of a-syn oligomerization in HEK293 cells (14) was used. In this assay, human A53T a-syn was fused to either the C- or N-terminal half of yellow fluorescent protein (YFP). No fluorescence is detectable while a-syn exists in monomers but, when a-syn oligomerizes, the two halves of YFP come in close enough proximity to form a functional, spontaneously fluorescent protein. […] By using fluorescence activated cell sorting (FACS), cells expressing Flag-tagged peptides that directly or indirectly interfered with a-syn oligomer formation were isolated and then the peptides were identified from genomic DNA (FIG. 1A). The screens yielded 10 hits (Table 1). The hit with the most reads (i.e., the most abundant) was the same peptide in all screens: IPIQLKA (SEQ ID NO: 1) (PDpep1) (Table 2). […] Lead peptide targets CHMP2B, a member of ESCRT-III
as §3, §4
Cells were harvested by trypsin treatment and centrifuged at 500×g for 5 minutes. The pellet was resuspended in ice-cold PBS and centrifuged again. The pellet was then resuspended at a concentration of 4×10^6 cells/ml in the sorting buffer, which is PBS containing 100 Kunitz Dnase l/ml, 10 μg/ml propidium iodide (Sigma) and 2% FBS. The sorting solution was also supplemented with either 10 μM forskolin, 100 μM 5,6-Dichlorobenzimidazole riboside (DRB, Sigma), 10 μM forskolin (Sigma) and 100 μM DRB or DMSO, as a control. The cells were then sent through a 40 μm filter to remove large clumps and loaded into either a FACScan Flow Cytometer (BD Bioscience) for cell analysis or a FACSVantage SE cell sorter (BD Bioscience) for cell sorting. The cells with positive propidium iodide staining (i.e., dead cells) were first eliminated from the analysis or sorting pool. For cell sorting, the desired population, either the most or least bright EGFP-positive cells, according to the purpose of the experiments (see Results), was sorted into either 15 ml conical tubes or 96-well plates, which both contained complete DMEM culture media.
Genomic DNA (gDNA) from peptide expressing cells at different time-points was extracted using QIAamp DNA Blood Mini Kit. PCR amplifications of peptides from gDNA in parallel with the lentiviral plasmid library (naïve library) were performed using indexed Illumina PCR primers to incorporate both the Illumina adapter sequences and indexing sequences. […]

Test [3] relates to HEK293 cells overexpressing A53T a-syn. The experiment in a line: Cytotoxicity screen of lentiviral 7-mer peptide library, Alpha syn A53T cells under MG132. It is filed as cell-based, human. Conditions: for Reads 0 uM MG132 / Reads 10 UM MG132 / Reads 25 UM MG132 / Reads 50 UM MG132: normalized Illumina peptide counts.
From the text: as §1, §2, §3, §4, §5

Turning to “AAYNLCA [7-mer library hit, Alpha Syn screen]”, in test [1], the “Slope Norm Reads” value worked out at 0.07, the “Reads 0 uM MG132” value was 1, the “Reads 10 UM MG132” value was 14 and the “Reads 25 UM MG132” value is recorded as 19.

“CFLFQIQ [7-mer library hit, oligomers screen]”: in test [2], the “Reads Ratio” value is 45.32, the “Reads GFP High” value is listed as 1, the “Reads GFP Inter” value is recorded as 0 and the “Reads GFP Neg” value is reported as 88.

Regarding “CKYRSVL [7-mer library hit, A53T screen]”, in test [3], the “Slope Norm Reads” value is recorded as 1.30, the “Reads 0 uM MG132” value came to 5, the “Reads 10 UM MG132” value is on record as 7 and the “Reads 25 UM MG132” value is 11. In test [3], the “Reads 50 UM MG132” value is reported as 438.

In the case of “CMVHSAG [7-mer library hit, Alpha Syn screen]”, in test [1], the “Slope Norm Reads” value is on record as 0.08, the “Reads 0 uM MG132” value stood at 4, the “Reads 10 UM MG132” value was 14 and the “Reads 25 UM MG132” value came out at 33.

With “DWLMVNL [7-mer library hit, Alpha Syn screen]”, in test [1], the “Slope Norm Reads” value amounted to 0.13, the “Reads 0 uM MG132” value is on record as 1, the “Reads 10 UM MG132” value was 13 and the “Reads 25 UM MG132” value is recorded as 29.

Consider “ECHTKIR [7-mer library hit, oligomers screen]”, for which, in test [2], the “Reads Ratio” value is recorded as 39.21, the “Reads GFP High” value was determined as 1, the “Reads GFP Inter” value came out at 0 and the “Reads GFP Neg” value is 76.

As for “EDVNKCV [7-mer library hit, A53T screen]”, in test [3], the “Slope Norm Reads” value was 0.68, the “Reads 0 uM MG132” value stood at 6, the “Reads 10 UM MG132” value worked out at 6 and the “Reads 25 UM MG132” value is recorded as 13. Further, the “Reads 50 UM MG132” value in test [3] worked out at 233.

As for “GAAAGGT [7-mer library hit, Alpha Syn screen]”, in test [1], the “Slope Norm Reads” value was 0.06, the “Reads 0 uM MG132” value is listed as 1, the “Reads 10 UM MG132” value is on record as 10 and the “Reads 25 UM MG132” value is listed as 17.

Regarding “GWTTVRR [7-mer library hit, A53T screen]”, in test [3], the “Slope Norm Reads” value stood at 0.94, the “Reads 0 uM MG132” value is 15, the “Reads 10 UM MG132” value turned out to be 1 and the “Reads 25 UM MG132” value is 29. Besides, the “Reads 50 UM MG132” value in test [3] is reported as 322.

With “LKRDQPV [7-mer library hit, oligomers screen]”, in test [2], the “Reads Ratio” value came to 30.30, the “Reads GFP High” value was found to be 3, the “Reads GFP Inter” value was 0 and the “Reads GFP Neg” value amounted to 118.

On to “LPASMPC [7-mer library hit, Alpha Syn screen]”, for which, in test [1], the “Slope Norm Reads” value worked out at 0.09, the “Reads 0 uM MG132” value is reported as 2, the “Reads 10 UM MG132” value came out at 16 and the “Reads 25 UM MG132” value is given as 27.

For “LPSKIYK [7-mer library hit, oligomers screen]”, in test [2], the “Reads Ratio” value turned out to be 29.53, the “Reads GFP High” value is given as 1, the “Reads GFP Inter” value is recorded as 0 and the “Reads GFP Neg” value is recorded as 57.

For the substance “LQVGVAV [7-mer library hit, Alpha Syn screen]”, in test [1], the “Slope Norm Reads” value was found to be 0.09, the “Reads 0 uM MG132” value was determined as 1, the “Reads 10 UM MG132” value is on record as 25 and the “Reads 25 UM MG132” value was 23.

In the case of “LSGECVP [7-mer library hit, Alpha Syn screen]”, in test [1], the “Slope Norm Reads” value is recorded as 0.07, the “Reads 0 uM MG132” value is given as 3, the “Reads 10 UM MG132” value turned out to be 28 and the “Reads 25 UM MG132” value is 28.

As for “MQMKLSQ [7-mer library hit, oligomers screen]”, in test [2], the “Reads Ratio” value worked out at 36.15, the “Reads GFP High” value is reported as 1, the “Reads GFP Inter” value amounted to 0 and the “Reads GFP Neg” value amounted to 70.

In the case of “PAMQIDG [7-mer library hit, A53T screen]”, in test [3], the “Slope Norm Reads” value is reported as 0.96, the “Reads 0 uM MG132” value amounted to 32, the “Reads 10 UM MG132” value stood at 20 and the “Reads 25 UM MG132” value was determined as 53. Also, the “Reads 50 UM MG132” value in test [3] was determined as 337.

Regarding “PLPTGMG [7-mer library hit, Alpha Syn screen]”, in test [1], the “Slope Norm Reads” value was 0.08, the “Reads 0 uM MG132” value is given as 1, the “Reads 10 UM MG132” value is recorded as 3 and the “Reads 25 UM MG132” value was 20.

As to “QAELSNS [7-mer library hit, A53T screen]”, in test [3], the “Slope Norm Reads” value was determined as 0.69, the “Reads 0 uM MG132” value came out at 6, the “Reads 10 UM MG132” value came to 8 and the “Reads 25 UM MG132” value was determined as 10. Moreover, the “Reads 50 UM MG132” value in test [3] turned out to be 235.

As for “QSPSSAW [7-mer library hit, A53T screen]”, in test [3], the “Slope Norm Reads” value is 0.82, the “Reads 0 uM MG132” value is recorded as 9, the “Reads 10 UM MG132” value was determined as 45 and the “Reads 25 UM MG132” value was determined as 59. The “Reads 50 UM MG132” value in test [3] was 284.

Regarding “QSVLQQV [7-mer library hit, A53T screen]”, in test [3], the “Slope Norm Reads” value is reported as 0.82, the “Reads 0 uM MG132” value is 13, the “Reads 10 UM MG132” value was found to be 2 and the “Reads 25 UM MG132” value was 12. For the same substance, the “Reads 50 UM MG132” value in test [3] turned out to be 282.

In the case of “QSVVTAP [7-mer library hit, A53T screen]”, in test [3], the “Slope Norm Reads” value worked out at 1.38, the “Reads 0 uM MG132” value is reported as 8, the “Reads 10 UM MG132” value is listed as 6 and the “Reads 25 UM MG132” value is 37. Also, the “Reads 50 UM MG132” value in test [3] is on record as 465.

In the case of “QVSVAQQ [7-mer library hit, A53T screen]”, in test [3], the “Slope Norm Reads” value is 0.69, the “Reads 0 uM MG132” value is listed as 45, the “Reads 10 UM MG132” value was 13 and the “Reads 25 UM MG132” value worked out at 120. The “Reads 50 UM MG132” value in test [3] was found to be 246.

For “RAPSCHL [7-mer library hit, Alpha Syn screen]”, in test [1], the “Slope Norm Reads” value was 0.15, the “Reads 0 uM MG132” value is on record as 1, the “Reads 10 UM MG132” value was 13 and the “Reads 25 UM MG132” value was 33.
